In this test the target is T1, endogenous NPR1 (Arabidopsis thaliana, UniProt P93002).
T1 construct: from tissue; host or cells: leaf tissue of three-week-old Arabidopsis Col-0 plants
T1 sequence (P93002 1-593): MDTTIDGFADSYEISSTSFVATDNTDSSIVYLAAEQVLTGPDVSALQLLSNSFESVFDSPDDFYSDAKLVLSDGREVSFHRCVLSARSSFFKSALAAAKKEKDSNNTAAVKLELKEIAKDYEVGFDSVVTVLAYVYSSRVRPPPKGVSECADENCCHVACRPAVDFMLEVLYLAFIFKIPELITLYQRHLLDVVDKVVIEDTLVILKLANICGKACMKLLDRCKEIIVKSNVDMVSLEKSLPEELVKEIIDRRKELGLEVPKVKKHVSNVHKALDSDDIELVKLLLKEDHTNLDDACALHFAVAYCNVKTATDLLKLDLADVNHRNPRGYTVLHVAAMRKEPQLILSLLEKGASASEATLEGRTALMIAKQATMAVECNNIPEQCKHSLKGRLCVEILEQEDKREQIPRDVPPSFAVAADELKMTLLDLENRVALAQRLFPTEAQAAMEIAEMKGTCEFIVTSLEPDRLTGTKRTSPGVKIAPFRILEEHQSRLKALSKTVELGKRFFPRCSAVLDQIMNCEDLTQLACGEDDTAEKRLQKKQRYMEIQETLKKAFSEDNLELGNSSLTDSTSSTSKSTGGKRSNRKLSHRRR
Briefly: Cell fractionation of endogenous NPR1 (cytoplasmic/nuclear). Format: in vivo. Conditions: 6 hr, Col-0. On the procedure: Cell fractionation. Cytoplasmic and nuclear proteins were sequentially isolated from three-week-old Arabidopsis (Col-0) plants using 1 g of leaf tissue and a sucrose gradient protocol described previously with modifications. Tissue was homogenized in lysis buffer (20 mM Tris-HCl, pH 7.5, 20 mM KCl, 2 mM EDTA, 2.5 mM MgCl2, 25% glycerol, 0.25 M Sucrose) supplemented with 100 μM MG132, EDTA-free protease inhibitor cocktail, 1 mM PMSF and 5 mM DTT. The lysate was filtered through a 70 μm filter and centrifuged at 20,000 g for 15 min at 4° C., and the supernatant was collected (cytoplasmic fraction). The pellet was washed four times with 5 ml of NRBT buffer (20 mM Tris-HCl, pH 7.4, 25% glycerol, 2.5 mM MgCl2, and 0.2% Triton X-100). After the last wash, the pellet was resuspended with 500 μl of NRB2 buffer (20 mM Tris-HCl, pH 7.5, 0.25 M Sucrose, 10 mM MgCl2, 0.5% Triton X-100) supplemented with protease inhibitor cocktail and 5 mM BME. The obtained suspension was layered at 1:1 on top of the NRB3 buffer (20 mM Tris-HCl, pH 7.5, 1.7 M Sucrose, 10 mM MgCl2, 0.5% Triton X-100) supplemented with protease inhibitor cocktail and 5 mM BME, centrifuged at 16,000 g for 45 min at 4° C. The top layer was removed and the pellet was resuspended with 200 μl of plant extraction buffer containing 1% Triton X-100, protease inhibitor cocktail and 5 mM BME (nuclear fraction). […]

`O=C(O)c1ccccc1O` [SA, salicylic acid]: the “subcellular accumulation of endogenous NPR1” value was “more NPR1 accumulated in the cytoplasm” (1 mM SA); “increased nuclear accumulation” (0.1 and 0.5 mM SA).

These data come from patent US20230227838A1, “ENHANCED CELL SURVIVAL AGAINST BIOTIC AND ABIOTIC STRESSES THROUGH SALICYLICK ACID-INDUCED NPR1 CONDENSATES” (priority 2020, published 2023).
